ChEMBL document CHEMBL1201862, “PubChem BioAssay data set” (2004)
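Grown in 96-well plates, cells were treated for 48 hours with each compound at five concentrations. Insufficient inhibition: endpoint recorded as highest concentration tested. Here, GI50 denotes the concentration required for 50% inhibition of growth.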 The source made the active and inactive calls. Rule as the data show it: active = GI50 up to about 1.1 µM and inactive = higher.

Columns and labels:
Experiment in all cases: DTP human tumour cell line panel, 48 h
786-0 = tested on: 786-0
A498 = tested on: A498
A549 = tested on: A549
ACHN = tested on: ACHN
CCRF-CEM = tested on: CCRF-CEM
COLO 205 = tested on: COLO 205
DLD-1 = tested on: DLD-1
DMS-114 = tested on: DMS-114
DMS-273 = tested on: DMS-273
EKVX = tested on: EKVX
HCC 2998 = tested on: HCC 2998
HCT-116 = tested on: HCT-116
HCT-15 = tested on: HCT-15
HL-60 = tested on: HL-60
HOP-18 = tested on: HOP-18
HOP-62 = tested on: HOP-62
HOP-92 = tested on: HOP-92
HT-29 = tested on: HT-29
IGROV-1 = tested on: IGROV-1
K562 = tested on: K562
KM-20L2 = tested on: KM-20L2
KM12 = tested on: KM12
LOX IMVI = tested on: LOX IMVI
LXFL 529 = tested on: LXFL 529
M14 = tested on: M14
M19-MEL = tested on: M19-MEL
MOLT-4 = tested on: MOLT-4
Malme-3M = tested on: Malme-3M
NCI-H23 = tested on: NCI-H23
NCI-H460 = tested on: NCI-H460
NCI-H522 = tested on: NCI-H522
OVCAR-3 = tested on: OVCAR-3
OVCAR-4 = tested on: OVCAR-4
OVCAR-5 = tested on: OVCAR-5
OVCAR-8 = tested on: OVCAR-8
RPMI-8226 = tested on: RPMI-8226
RXF 393 = tested on: RXF 393
SF-268 = tested on: SF-268
SF-295 = tested on: SF-295
SF-539 = tested on: SF-539
SK-MEL-28 = tested on: SK-MEL-28
SK-MEL-2 = tested on: SK-MEL-2
SK-MEL-5 = tested on: SK-MEL-5
SK-OV-3 = tested on: SK-OV-3
SN12C = tested on: SN12C
SNB-19 = tested on: SNB-19
SNB-75 = tested on: SNB-75
SNB-78 = tested on: SNB-78
SW-620 = tested on: SW-620
TK-10 = tested on: TK-10
U-251 = tested on: U-251
UACC-257 = tested on: UACC-257
UACC-62 = tested on: UACC-62
UO-31 = tested on: UO-31
CAKI-1 = tested on: CAKI-1
NCI-H226 = tested on: NCI-H226
SR = tested on: SR
XF498 = tested on: XF498

CN(C)CCC(/C=C/c1ccccc1)=N\Nc1ccc(Cl)cc1
GI50 (786-0): 2.39 µM (inactive) | GI50 (A498): 7.66 µM (inactive) | GI50 (A549): 2.52 µM (inactive) | GI50 (ACHN): 2.23 µM (inactive) | GI50 (CCRF-CEM): 2.96 µM (inactive) | GI50 (COLO 205): 4.31 µM (inactive) | GI50 (DLD-1): 2.88 µM (inactive) | GI50 (DMS-114): 2.4 µM (inactive) | GI50 (DMS-273): 2.11 µM (inactive) | GI50 (EKVX): 2.49 µM (inactive) | GI50 (HCC 2998): 1.69 µM (inactive) | GI50 (HCT-116): 3.51 µM (inactive) | GI50 (HCT-15): 3.01 µM | GI50 (HL-60): 2.18 µM (inactive) | GI50 (HOP-18): 4.69 µM (inactive) | GI50 (HOP-62): 1.8 µM (inactive) | GI50 (HOP-92): 2.18 µM (inactive) | GI50 (HT-29): 3.86 µM (inactive) | GI50 (IGROV-1): 2.64 µM (inactive) | GI50 (K562): 2.21 µM (inactive) | GI50 (KM-20L2): 1.56 µM (inactive) | GI50 (KM12): 2.84 µM (inactive) | GI50 (LOX IMVI): 1.59 µM (inactive) | GI50 (LXFL 529): 2.84 µM (inactive) | GI50 (M14): 3.18 µM (inactive) | GI50 (M19-MEL): 6.78 µM (inactive) | GI50 (MOLT-4): 2.23 µM (inactive) | GI50 (Malme-3M): 12.7 µM (inactive) | GI50 (NCI-H23): 7.24 µM (inactive) | GI50 (NCI-H460): 2.1 µM (inactive) | GI50 (NCI-H522): 3.24 µM (inactive) | GI50 (OVCAR-3): 8.69 µM (inactive) | GI50 (OVCAR-4): 5.21 µM (inactive) | GI50 (OVCAR-5): 1.08 µM (active) | GI50 (OVCAR-8): 2.98 µM (inactive) | GI50 (RPMI-8226): 1.9 µM (inactive) | GI50 (RXF 393): 6.05 µM (inactive) | GI50 (SF-268): 2.07 µM (inactive) | GI50 (SF-295): 3.99 µM (inactive) | GI50 (SF-539): 2.25 µM (inactive) | GI50 (SK-MEL-28): 12.8 µM (inactive) | GI50 (SK-MEL-2): 2 µM (inactive) | GI50 (SK-MEL-5): 14.7 µM (inactive) | GI50 (SK-OV-3): 3.99 µM (inactive) | GI50 (SN12C): 2.29 µM (inactive) | GI50 (SNB-19): 11 µM (inactive) | GI50 (SNB-75): 4.31 µM (inactive) | GI50 (SNB-78): 6.07 µM (inactive) | GI50 (SW-620): 3.87 µM (inactive) | GI50 (TK-10): 2.89 µM (inactive) | GI50 (U-251): 1.84 µM (inactive) | GI50 (UACC-257): 4.18 µM (inactive) | GI50 (UACC-62): 2.03 µM (inactive) | GI50 (UO-31): 1.71 µM (inactive)

CCCCCCCCCCCCCC(=O)OC1C(O)C(CO)OC(OC)C1NC(=O)N(CCCl)N=O (configuration not stated)
GI50 (A549): 83.9 µM (inactive) | GI50 (ACHN): 41.4 µM (inactive) | GI50 (CAKI-1): > 100 µM (inactive) | GI50 (COLO 205): > 100 µM (inactive) | GI50 (DLD-1): > 100 µM (inactive) | GI50 (DMS-273): 71.1 µM (inactive) | GI50 (HCC 2998): > 100 µM (inactive) | GI50 (HCT-15): > 100 µM | GI50 (HOP-18): > 100 µM (inactive) | GI50 (HOP-62): 50.7 µM (inactive) | GI50 (HT-29): 56.6 µM (inactive) | GI50 (IGROV-1): > 100 µM (inactive) | GI50 (K562): > 100 µM (inactive) | GI50 (KM-20L2): > 100 µM (inactive) | GI50 (KM12): > 100 µM (inactive) | GI50 (LOX IMVI): 22.5 µM (inactive) | GI50 (LXFL 529): > 100 µM (inactive) | GI50 (M14): > 100 µM (inactive) | GI50 (M19-MEL): > 100 µM (inactive) | GI50 (MOLT-4): 17.3 µM (inactive) | GI50 (Malme-3M): > 100 µM (inactive) | GI50 (NCI-H226): > 100 µM (inactive) | GI50 (NCI-H23): 28.6 µM (inactive) | GI50 (NCI-H460): 18.7 µM (inactive) | GI50 (NCI-H522): 72.9 µM (inactive) | GI50 (OVCAR-3): > 100 µM (inactive) | GI50 (OVCAR-4): > 100 µM (inactive) | GI50 (OVCAR-5): > 100 µM (inactive) | GI50 (OVCAR-8): 43.6 µM (inactive) | GI50 (RPMI-8226): 30.8 µM (inactive) | GI50 (RXF 393): 47 µM (inactive) | GI50 (SF-268): 6.27 µM (inactive) | GI50 (SF-295): 29 µM (inactive) | GI50 (SF-539): 16.4 µM (inactive) | GI50 (SK-MEL-28): > 100 µM (inactive) | GI50 (SK-MEL-2): > 100 µM (inactive) | GI50 (SK-MEL-5): 45.2 µM (inactive) | GI50 (SN12C): 37 µM (inactive) | GI50 (SNB-19): 23.7 µM (inactive) | GI50 (SNB-75): 38.6 µM (inactive) | GI50 (SR): 23.2 µM (inactive) | GI50 (SW-620): > 100 µM (inactive) | GI50 (TK-10): > 100 µM (inactive) | GI50 (U-251): 25.6 µM (inactive) | GI50 (UACC-257): 28.8 µM (inactive) | GI50 (UACC-62): 5.06 µM (inactive) | GI50 (UO-31): > 100 µM (inactive) | GI50 (XF498): 48.9 µM (inactive)

Cc1cc2c([nH]c3ccccc32)c2c1OC(C)(C)C1C3CC(C)(C)Oc4c(C)cc5c6ccccc6n(c5c43)C21 (configuration not stated)
GI50 (786-0): > 100 µM (inactive) | GI50 (A498): > 100 µM (inactive) | GI50 (A549): > 100 µM (inactive) | GI50 (ACHN): > 100 µM (inactive) | GI50 (CAKI-1): > 100 µM (inactive) | GI50 (CCRF-CEM): > 100 µM (inactive) | GI50 (COLO 205): > 100 µM (inactive) | GI50 (DMS-114): > 100 µM (inactive) | GI50 (DMS-273): > 100 µM (inactive) | GI50 (EKVX): > 100 µM (inactive) | GI50 (HCC 2998): > 100 µM (inactive) | GI50 (HCT-116): > 100 µM (inactive) | GI50 (HCT-15): > 100 µM | GI50 (HL-60): > 100 µM (inactive) | GI50 (HOP-18): > 100 µM (inactive) | GI50 (HOP-62): > 100 µM (inactive) | GI50 (HOP-92): > 100 µM (inactive) | GI50 (HT-29): > 100 µM (inactive) | GI50 (IGROV-1): > 100 µM (inactive) | GI50 (K562): > 100 µM (inactive) | GI50 (KM-20L2): > 100 µM (inactive) | GI50 (KM12): > 100 µM (inactive) | GI50 (LOX IMVI): > 100 µM (inactive) | GI50 (LXFL 529): > 100 µM (inactive) | GI50 (M14): > 100 µM (inactive) | GI50 (M19-MEL): > 100 µM (inactive) | GI50 (MOLT-4): > 100 µM (inactive) | GI50 (Malme-3M): > 100 µM (inactive) | GI50 (NCI-H23): > 100 µM (inactive) | GI50 (NCI-H460): 52.7 µM (inactive) | GI50 (NCI-H522): > 100 µM (inactive) | GI50 (OVCAR-3): > 100 µM (inactive) | GI50 (OVCAR-4): > 100 µM (inactive) | GI50 (OVCAR-5): > 100 µM (inactive) | GI50 (OVCAR-8): > 100 µM (inactive) | GI50 (RPMI-8226): > 100 µM (inactive) | GI50 (RXF 393): > 100 µM (inactive) | GI50 (SF-268): > 100 µM (inactive) | GI50 (SF-295): > 100 µM (inactive) | GI50 (SF-539): > 100 µM (inactive) | GI50 (SK-MEL-28): > 100 µM (inactive) | GI50 (SK-MEL-2): > 100 µM (inactive) | GI50 (SK-MEL-5): > 100 µM (inactive) | GI50 (SK-OV-3): > 100 µM (inactive) | GI50 (SN12C): > 100 µM (inactive) | GI50 (SNB-19): > 100 µM (inactive) | GI50 (SNB-75): > 100 µM (inactive) | GI50 (SNB-78): > 100 µM (inactive) | GI50 (SR): > 100 µM (inactive) | GI50 (SW-620): > 100 µM (inactive) | GI50 (TK-10): > 100 µM (inactive) | GI50 (U-251): > 100 µM (inactive) | GI50 (UACC-257): > 100 µM (inactive) | GI50 (UACC-62): > 100 µM (inactive) | GI50 (UO-31): > 100 µM (inactive)
